Common to all, as to assay: inhibition of tumour cell growth, NCI panel, 48 h
Assay [1] has as its system SR.
The subject of assay [2] is SNB-19.
Assay [3] concerns LOX IMVI.
The subject of assay [4] is HL-60.
Assay [5] deals with A498.
In assay [6] the test system is T47D.
In assay [7] the test system is NCI-H23.
The subject of assay [8] is DU-145.
The subject of assay [9] is SF-268.
The test system of assay [10] is IGROV-1.
Assay [11] concerns UACC-257.
Assay [12] relates to SK-MEL-28.
Assay [13] relates to NCI-H522.
Assay [14] has as its system 786-0.
Assay [15] concerns NCI-H226.
Assay [16] has as its system MDA-N.
In assay [17] the test system is UACC-62.
The subject of assay [18] is SN12C.
Assay [19] has as its system COLO 205.

Molecules are shown by their SMILES.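 Five compound concentrations were applied to cells in 96-well plates for 48 hours; endpoints were derived by simple linear interpolation of the resulting dose-response curve. Abbreviation: GI50, concentration required for 50% inhibition of growth.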 Activity calls are given as the source filed them. Cut-off read from the data, not from the text of the source: active = GI50 up to about 1.1 µM and inactive = higher. Positions of bridges follow the written chain, without caps; N, C: chain ends. Non-standard residues stand in square brackets, D forms with d. Residues, ends and D or L forms follow the SMILES beside them. *: point of attachment. Cbz = O=C(OCc1ccccc1)*; Aib = CC(C)(N)C(=O)O; OBn = c1ccc(CO*)cc1; βAla = NCCC(=O)O

For the molecule `COc1ccc(OC)c(/C=C/c2ccnc3ccccc23)c1`, the GI50 is 0.277 µM (active) in assay [1]; 0.631 µM (active) in assay [2]; 0.365 µM (active) in [3]; 0.2 µM (active) in assay [4]; 0.452 µM (active) in [5]; 1.63 µM (inactive) in assay [6]. Besides, the GI50 in assay [7] was 0.346 µM (active); in assay [8] it was 0.525 µM (active); in assay [9], 0.647 µM (active); in assay [10], 0.822 µM (active); in assay [11] it was 0.513 µM (active); in [12], 0.574 µM (active). Besides, the GI50 in assay [13] is 0.281 µM (active); in assay [14], 0.482 µM (active); in assay [15], 0.441 µM (active); in [16], 0.156 µM (active); in assay [17] it was 0.307 µM (active); in assay [18], 0.619 µM (active). Moreover, the GI50 in assay [19] was 0.277 µM (active).
Turning to `COc1cc(C2c3cc4c(cc3OC(Nc3ccc(C(=O)O)cc3)C2C)OCO4)cc(OC)c1OC` (stereo not drawn), the GI50 in assay [1] is 0.204 µM (active); in assay [2] it was 0.472 µM (active); in [3], 0.532 µM (active); in assay [4], 0.186 µM (active); in assay [5] it was 0.714 µM (active); in assay [6] it was 0.458 µM (active). The GI50 in assay [7] was 0.454 µM (active); in [8], 0.378 µM (active); in [9] it was 0.504 µM (active); in [10], 0.618 µM (active); in assay [11], > 40.3 µM (inactive); in assay [12], 11.1 µM (inactive). Moreover, the GI50 in [13] is 0.376 µM (active); in [14] it was 0.468 µM (active); in assay [15] it was 2.31 µM (inactive); in assay [16] it was 0.0557 µM (active); in assay [17], 0.403 µM (active); in assay [18], 0.991 µM (active). In addition, the GI50 in assay [19] was 0.202 µM (active).
Take `Cc1cccc2c(N)c3cccc(C(=O)NCC[N+](C)(C)Cc4ccc([N+](=O)[O-])n4C)c3nc12`: the GI50 in [1] was 3.44 µM (inactive); in assay [2] it was 15.6 µM (inactive); in [3], 18 µM (inactive); in assay [4], 4.6 µM (inactive); in assay [5], 10.4 µM (inactive); in assay [6], 4.71 µM (inactive). For the same molecule, the GI50 in assay [7] is 13.2 µM (inactive); in assay [8], 18.8 µM (inactive); in [9], 8.47 µM (inactive); in [10], 9.53 µM (inactive); in assay [11] it was 53.5 µM (inactive); in assay [12], 43.8 µM (inactive). Further, the GI50 was 8.65 µM (inactive) in assay [13]; 7.45 µM (inactive) in assay [14]; 6.5 µM (inactive) in assay [15]; 41.3 µM (inactive) in assay [16]; 44.3 µM (inactive) in assay [17]; 3.07 µM (inactive) in assay [18]. Also, in assay [19], the GI50 is 9.82 µM (inactive).
As to `CC(C)c1ccc(C2NC(S)=NC3=C2c2ccccc2C3=O)cc1` (stereo not drawn), the GI50 is 8.95 µM (inactive) in assay [1]; 23.8 µM (inactive) in assay [2]; 20.6 µM (inactive) in assay [3]; 8.75 µM (inactive) in assay [4]; 36.7 µM (inactive) in assay [5]; 18.2 µM (inactive) in assay [6]. For the same molecule, the GI50 was 23.6 µM (inactive) in assay [7]; 16.7 µM (inactive) in assay [8]; 19.9 µM (inactive) in assay [9]; 27 µM (inactive) in assay [10]; > 41.4 µM (inactive) in assay [11]; 21.1 µM (inactive) in assay [12]. For the same molecule, the GI50 in assay [13] is 17.3 µM (inactive); in [14], 22.5 µM (inactive); in assay [15], 34.4 µM (inactive); in assay [16], 5.31 µM (inactive); in [17], 12 µM (inactive); in assay [18] it was 24.7 µM (inactive). Besides, the GI50 in [19] was 26.4 µM (inactive).
For `CCOc1cc(NC(C)=O)ccc1C(=O)NN1C(=O)/C(=C/c2ccco2)N=C1c1ccccc1`, the GI50 in [1] is 41.5 µM (inactive); in assay [2], > 100 µM (inactive); in assay [3], > 100 µM (inactive); in [4], > 100 µM (inactive); in [5] it was > 100 µM (inactive); in assay [6], > 100 µM (inactive). For the same molecule, the GI50 in assay [7], in assay [8], in [9], in assay [10], in assay [11] and in [12] was > 100 µM (inactive) each time. In addition, the GI50 in [13] was 24.9 µM (inactive); in assay [14] it was > 100 µM (inactive); in assay [15], > 100 µM (inactive); in assay [16] it was > 100 µM (inactive); in assay [17] it was > 100 µM (inactive); in [18], > 100 µM (inactive). Further, the GI50 in [19] was > 100 µM (inactive).
As to `C/C=C/C=C/C1=NN(c2cccc(S(=O)(=O)O)c2)C2(C1)SCC(=O)N2c1nc2ccccc2s1` (stereo not drawn), the GI50 in assay [1] was 25.1 µM (inactive); in assay [2], 47 µM (inactive); in [3], 19.6 µM (inactive); in assay [4], > 100 µM (inactive); in [5], 50.5 µM (inactive); in [6], 24.6 µM (inactive). In addition, the GI50 in [7] was 42.5 µM (inactive); in assay [8], 34.5 µM (inactive); in assay [9] it was 89.7 µM (inactive); in assay [10] it was 19.7 µM (inactive); in assay [11], > 100 µM (inactive); in assay [12], > 100 µM (inactive). The GI50 in assay [13] was 33.1 µM (inactive); in assay [14] it was 19.8 µM (inactive); in [15], 30.8 µM (inactive); in [16] it was 61 µM (inactive); in [17] it was 40.7 µM (inactive); in assay [18] it was 41.2 µM (inactive). Also, the GI50 in [19] was > 100 µM (inactive).
In the case of `CCOC(=O)CCC(C(=O)OCC)n1nnc2cc(Nc3c(C)[n+]([O-])c4ccc(Cl)cc4[n+]3[O-])ccc21` (stereo not drawn), the GI50 in assay [1] is 48.6 µM (inactive); in assay [2], > 100 µM (inactive); in assay [3], 52.2 µM (inactive); in assay [4] it was 45 µM (inactive); in [5], > 100 µM (inactive); in assay [6], 39.9 µM (inactive). Also, the GI50 was 92 µM (inactive) in [7]; > 100 µM (inactive) in assay [8]; 34.8 µM (inactive) in [9]; > 100 µM (inactive) in assay [10]; 54.1 µM (inactive) in assay [11]; > 100 µM (inactive) in [13]. Besides, the GI50 in assay [14] is 98.4 µM (inactive); in assay [15] it was 26.9 µM (inactive); in assay [16], > 100 µM (inactive); in assay [17], 63.5 µM (inactive); in assay [18] it was 80.4 µM (inactive); in assay [19] it was 44.8 µM (inactive).
Regarding `NS(=O)(=O)c1ccc(NC(=S)NC(=O)Nc2ccc(Cl)c(Cl)c2)cc1`, the GI50 in assay [1] was < 0.01 µM (active); in assay [2] it was 11.9 µM (inactive); in assay [3] it was 6.17 µM (inactive); in [4], 10.5 µM (inactive); in assay [5], 1.07 µM (active); in assay [6], 10.7 µM (inactive). In addition, the GI50 in [7] was 16 µM (inactive); in [8] it was 15.5 µM (inactive); in assay [9], 12.8 µM (inactive); in assay [10] it was 19.3 µM (inactive); in assay [11], 17.9 µM (inactive); in assay [12] it was 17.8 µM (inactive). Further, the GI50 in assay [13] was 16 µM (inactive); in assay [14], 14.9 µM (inactive); in [15], 20.4 µM (inactive); in [16] it was 14.6 µM (inactive); in assay [17], 13.5 µM (inactive); in [18], 15.8 µM (inactive). In addition, the GI50 in assay [19] was 14 µM (inactive).
For `CC(C)NC(=O)OCc1c(COC(=O)NC(C)C)n(C)c2c1ccc1ccccc12`, the GI50 in [1] is 0.57 µM (active); in assay [2], 1.74 µM (inactive); in [3], 1.16 µM (inactive); in assay [4] it was 2.86 µM (inactive); in assay [5] it was 1.57 µM (inactive); in [6], 0.247 µM (active). Moreover, the GI50 was 1.54 µM (inactive) in assay [7]; 3.1 µM (inactive) in assay [8]; 1.9 µM (inactive) in assay [9]; 1.43 µM (inactive) in [10]; 1.52 µM (inactive) in [11]; 1.99 µM (inactive) in assay [12]. For the same molecule, the GI50 in assay [13] is 0.0417 µM (active); in assay [14], 1.21 µM (inactive); in assay [15], 1.82 µM (inactive); in [16], 1.74 µM (inactive); in assay [17], 1.44 µM (inactive); in assay [18], 2.02 µM (inactive). Also, in assay [19], the GI50 is 1.84 µM (inactive).
As to `CC1(C)NC(=O)C(NC(=O)C(CC(=O)OCc2ccccc2)NC(=O)OCc2ccccc2)CCCCNC(=O)CCNC1=O` (stereo not drawn) (Cbz-D(OBn)K[Aib][βAla]; lactam 2-C; configuration not given here), the GI50 in assay [1] was > 10 µM (inactive); in assay [2], > 100 µM (inactive); in assay [3], > 100 µM (inactive); in [4], > 100 µM (inactive); in [5] it was > 100 µM (inactive); in [6], > 100 µM (inactive). Moreover, the GI50 in [7], in assay [8], in [9], in assay [10], in assay [12] and in assay [13] was > 100 µM (inactive) in each case. Besides, the GI50 in assay [14], in assay [15], in [16], in assay [17], in [18] and in assay [19] was > 100 µM (inactive) in each case.

The record behind these values is ChEMBL document CHEMBL1201862, “PubChem BioAssay data set” (2004).
